The nature of series [1]: Metabolic stability in dog hepatocytes. It is filed as in vitro ADME. Particulars: pooled cryopreserved hepatocytes; beagle dog hepatocytes, 2 μM compound, 500,000 cells/mL, 37° C.; read-out: Dog Hepatocyte Stability (T½: min). As to the method: The following procedure was used to determine the stability of test compounds in beagle dog hepatocytes in a 96-well plate format. The test compounds, including the controls, imipramine and 7-ethoxycoumarin, were dissolved at 10 mM in DMSO, followed by further 5-fold dilution with DMSO to 2 mM. Pooled cryopreserved beagle dog hepatocytes were thawed and transferred into complete medium. Cells were gently centrifuged (700 rpm for 5 min) and the pellet rinsed with KHB (Krebs Henseleit buffer). Cells were resuspended, counted using Trypan blue, and adjusted to 1 million cells/mL in KHB buffer. The 2 mM compound stock solutions were diluted 10-fold with acetonitrile, followed by a further 50-fold dilution with KHB buffer. 200 μL of these compound solutions were transferred to 96-well polypropylene assay plates and an equal volume of the hepatocyte solution was added and mixed to initiate the reaction (final assay concentrations were 2 μM compound and 500,000 cells/mL). Assay plates were incubated at 37° C. in 5% CO2 with gentle agitation. 50 μL aliquots were removed at multiple time points out to 180 minutes and quenched with 6 volumes of cold acetonitrile (containing 250 ng/mL of carbutamide and chrysin as internal standards) to terminate the reaction and precipitate protein. Quenched samples were maintained on ice. The quenched samples were centrifuged at 2000×g (3100 rpm) for 10 minutes at 4° C. 50 μL aliquots of the supernatants were removed and diluted with 100 μL Milli-Q water to reduce the % organic content prior to bioanalysis by LC-MS/MS. Peak areas corresponding to the test compound were recorded. The compound remaining was calculated by comparing the peak area at each time point to time zero. Data were analyzed and results were calculated using Microsoft Excel 2010.

The nature of series [2]: Plasma protein binding by equilibrium dialysis. It is filed as in vitro ADME. Particulars: both sexes, pooled plasma, pH 7.4, human plasma protein binding, read-out: PPB. As for the experimental part:
The following procedure was used to determine the plasma protein binding of a test compound in pooled plasma from human (mixed gender) via equilibrium dialysis in a 96-well plate format. The dialysate compartment was loaded with phosphate-buffered saline (pH 7.4) and the sample side was loaded with plasma spiked with the test compound at a concentration of 10 μM. After loading, samples were covered and incubated for 4 hours at 37° C. After incubation, each compartment was sampled, diluted with acetonitrile/buffer and centrifuged. The supernatants were analyzed by HPLC-MS/MS. The analyte peak areas obtained from HPLC-MS/MS analysis of each sample were used to calculate protein binding according to the following equation (Equation 4):
where: AREAp=Peak area of analyte in protein matrix; AREAb=Peak area of analyte in buffer. The amount measured in the plasma compartment included both free and bound drug, while that on the buffer side represented free drug only; the differences were used to calculate the percentage plasma protein bound. Three reference compounds were tested in each assay: acebutolol, quinidine and warfarin.

Series [3] can be described thus: Aqueous solubility in PBS pH 7.4. It is filed as physicochemical. Particulars: phosphate buffered saline, aqueous buffer, kinetic from dmso stock, PBS pH 7.4, room temperature. As to the method:
The following procedure was used to determine the aqueous solubility of a test compound in phosphate buffered saline (PBS—NaCl 137 mM, KCl 2.7 mM, Na2HPO4 8.1 mM, KH2PO4 1.5 mM, pH 7.4) in 96-well plate format by HPLC-UV/VIS analysis. The test compound was prepared at 200 μM in PBS from a 10 mM DMSO stock solution. The final DMSO concentration was 2%. The PBS buffer samples were mixed thoroughly followed by incubation at room temperature for 24 h. At the end of the incubation, the PBS buffer samples were centrifuged and supernatants analyzed by HPLC. The aqueous solubility (μM) of the test compound in PBS was determined by comparing the peak area of the principal peak in the calibration standard (200 μM) with the peak area of the corresponding peak in each of the PBS samples. The range of the assay was approximately 0.5 μM to 200 μM. The reference compounds used in each assay were metoprolol, rifampicin, ketoconazole, phenytoin, haloperidol, simvastatin, diethylstilbestrol, and tamoxifen ranking from fully soluble (200 μM) to poorly soluble (<1 μM).

For a further series, the target named is T1, Factor Xa (Homo sapiens, UniProt P00742).
T1 construct: Factor Xa; 0.2 μM in 50% glycerol (9.2 μg/mL)
Kind of series: Dose response assay for protease inhibitors: Factor Xa. Particulars: ratio versus Factor XIa. It is filed as biochemical.

Molecules are shown by their SMILES. ≈ marks a conversion by molar mass, not a printed value.

T1 sequence (P00742 235-488 limits assumed): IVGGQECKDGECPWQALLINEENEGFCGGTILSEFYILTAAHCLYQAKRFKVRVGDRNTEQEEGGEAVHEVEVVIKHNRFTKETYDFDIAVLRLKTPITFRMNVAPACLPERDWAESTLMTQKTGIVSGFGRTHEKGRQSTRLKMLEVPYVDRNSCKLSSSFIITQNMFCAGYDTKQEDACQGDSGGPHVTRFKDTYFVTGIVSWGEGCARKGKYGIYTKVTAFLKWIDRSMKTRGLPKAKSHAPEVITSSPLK
T1 sequence (P00742 41-179 partner limits assumed): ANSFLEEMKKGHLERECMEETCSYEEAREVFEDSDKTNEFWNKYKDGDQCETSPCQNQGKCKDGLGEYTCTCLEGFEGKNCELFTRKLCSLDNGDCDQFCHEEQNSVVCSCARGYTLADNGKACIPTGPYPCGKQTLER

As to `CN(C(=O)[C@@H]1[C@@H](Cc2ccnc(N)c2)C(=O)N1C(=O)N[C@@H](C1CC1)C(F)(F)F)c1ccncc1` [Compound 77], in series [1], the half-life at 2 μM was 2.02 to 4 h. Also, in series [2], the fraction unbound at 4 h, 10 μM was less than 0.5. Further, in series [3], the solubility at 24 h is more than 100 µM. At Factor Xa, the “FXa/FXIa (selectivity ratio)” value is “H (“H” indicates 101-1000)”.
Regarding `CN(C(=O)[C@@H]1[C@@H](Cc2ccnc(N)c2)C(=O)N1C(=O)N[C@@H](C1CC1)C(F)(F)F)c1ncccn1` [Compound 78], the half-life at 2 μM in series [1] was less than 1 h. The fraction unbound at 4 h, 10 μM in series [2] was 0.1 to 0.5. The solubility at 24 h in series [3] is more than 100 µM. For the same molecule, the “FXa/FXIa (selectivity ratio)” value at Factor Xa is recorded as “I (“I” indicates >500)”.
Turning to `CC[C@@H](NC(=O)N1C(=O)[C@H](Cc2ccnc(N)c2)[C@H]1C(=O)N(C)c1ccncc1)c1cccnc1` [Compound 59], the half-life at 2 μM in series [1] is more than 4 h. The fraction unbound at 4 h, 10 μM in series [2] was less than 0.5. The molecule also came in with a solubility at 24 h in series [3] of more than 100 µM. In addition, the “FXa/FXIa (selectivity ratio)” value on Factor Xa is “I (“I” indicates >500)”.
With `CC[C@@H](NC(=O)N1C(=O)[C@H](Cc2ccnc(N)c2)[C@H]1C(=O)N(C)c1ccccc1)c1cccnc1` [Compound 44], the half-life at 2 μM in series [1] is 2.02 to 4 h. Further, in series [2], the fraction unbound at 4 h, 10 μM was 0.1 to 0.5. The solubility at 24 h in series [3] was more than 100 µM. In addition, the “FXa/FXIa (selectivity ratio)” value at Factor Xa was “I (“I” indicates >500)”.
Consider `CC[C@@H](NC(=O)N1C(=O)[C@H](Cc2cc(C)nc(N)c2)[C@H]1C(=O)N(C)c1ccccc1)c1cccc(Cl)c1` [Compound 120], for which, in series [1], the half-life at 2 μM was in the range of 2.02 to 4 h. Also, in series [2], the fraction unbound at 4 h, 10 μM was less than 0.05. In series [3], this molecule returned a solubility at 24 h of 10 to 100 µM (≈ 5.2 to 52 µg/mL). Further, the “FXa/FXIa (selectivity ratio)” value at Factor Xa is “I (“I” indicates >500)”.
Turning to `C[C@@H](NC(=O)N1C(=O)[C@H](Cc2ccnc(N)c2)[C@H]1C(=O)N(C)c1ccccc1)C1CCCCC1` [Compound 49], the half-life at 2 μM in series [1] is less than 1 h. Moreover, the fraction unbound at 4 h, 10 μM in series [2] lay in the range of 0.05 to 0.09. Moreover, in series [3], the solubility at 24 h was more than 100 µM. Further, the “FXa/FXIa (selectivity ratio)” value at Factor Xa is given as “I (“I” indicates >500)”.
Taken in the same sequence, the figures for `CN(C(=O)[C@@H]1[C@@H](Cc2ccnc(N)c2)C(=O)N1C(=O)N[C@@H](C1CCCCC1)C1CC1)c1ccncc1` [Compound 52] were less than 1 h, 0.05 to 0.09, more than 100 µM and “I (“I” indicates >500)”.
Regarding `CC[C@@H](NC(=O)N1C(=O)[C@H](Cc2ccnc(NC)c2)[C@H]1C(=O)N(C)c1ncccn1)C1CCCCC1` [Compound 80], the half-life at 2 μM in series [1] is less than 1 h. The fraction unbound at 4 h, 10 μM in series [2] is less than 0.05. Moreover, the solubility at 24 h in series [3] is more than 100 µM. In addition, the “FXa/FXIa (selectivity ratio)” value on Factor Xa is reported as “I (“I” indicates >500)”.
In the case of `CC[C@@H](NC(=O)N1C(=O)[C@H](Cc2ccnc(N)c2)[C@H]1C(=O)N(C)c1ccncc1)C1CCCCC1` [Compound 25], the half-life at 2 μM in series [1] lay within 2.02 to 4 h. Moreover, the fraction unbound at 4 h, 10 μM in series [2] lay in the range of 0.1 to 0.5. The molecule also came in with a solubility at 24 h in series [3] of more than 100 µM. For the same molecule, the “FXa/FXIa (selectivity ratio)” value on Factor Xa is listed as “I (“I” indicates >500)”.
Taken in the same sequence, the figures for `CC[C@@H](NC(=O)N1C(=O)[C@H](Cc2ccnc(N)c2)[C@H]1C(=O)N(C)c1ncncn1)c1ccccc1` [Compound 83] were less than 1 h, 0.1 to 0.5, more than 100 µM and “I (“I” indicates >500)”.
For the molecule `CC[C@@H](NC(=O)N1C(=O)[C@H](Cc2ccnc(N)c2)[C@H]1C(=O)N(C)c1ccncc1)c1cccc(C)c1` [Compound 87], in series [1], the half-life at 2 μM was in the range of 2.02 to 4 h. Moreover, the fraction unbound at 4 h, 10 μM in series [2] is less than 0.05. Moreover, the solubility at 24 h in series [3] is more than 100 µM. The “FXa/FXIa (selectivity ratio)” value at Factor Xa is given as “I (“I” indicates >500)”.
Taken in the same sequence, the figures for `CC[C@@H](NC(=O)N1C(=O)[C@H](Cc2ccnc(N)c2)[C@H]1C(=O)N(C)c1ncccn1)c1cccnc1` [Compound 61] were 2.02 to 4 h, less than 0.5, more than 100 µM and “H (“H” indicates 101-1000)”.
Taken in the same sequence, the figures for `CC[C@@H](NC(=O)N1C(=O)[C@H](Cc2ccnc(NC(=O)OC(C)(C)C)c2)[C@H]1C(=O)N(C)c1ccncc1)c1cccc(Cl)c1` [Compound 127] were less than 1 h, less than 0.05, 10 to 100 µM (≈ 6.07 to 60.7 µg/mL) and “H (“H” indicates 101-1000)”.
Turning to `CCC[C@@H](NC(=O)N1C(=O)[C@H](Cc2ccnc(N)c2)[C@H]1C(=O)N(C)c1ccccc1)C1CCCCC1` [Compound 50], in series [1], the half-life at 2 μM fell in the range of 1.02 to 2 h. The fraction unbound at 4 h, 10 μM in series [2] is less than 0.05. In series [3], this molecule returned a solubility at 24 h of more than 100 µM. In addition, the “FXa/FXIa (selectivity ratio)” value at Factor Xa is given as “I (“I” indicates >500)”.
With `CC[C@@H](NC(=O)N1C(=O)[C@H](Cc2ccnc(N)c2)[C@H]1C(=O)N(C)c1ccncc1)c1cccc(C#N)c1` [Compound 99], the half-life at 2 μM in series [1] was more than 4 h. Also, the fraction unbound at 4 h, 10 μM in series [2] was in the range of 0.1 to 0.5. In series [3], this molecule had a solubility at 24 h of more than 100 µM. The “FXa/FXIa (selectivity ratio)” value on Factor Xa is on record as “I (“I” indicates >500)”.

The term solubility denotes the concentration that dissolves in the medium under given conditions.

Values taken from patent publication US20190315711A1 (eXIthera Pharmaceuticals, Inc., priority 2016, published 2019).
